Measurements published in article PMC7154053, “Chemical, Metabolic, and Cellular Characterization of a FtsZ Inhibitor Effective Against Burkholderia cenocepacia” (Frontiers in Microbiology, 2020).
≈ marks a conversion by molar mass, not a printed value. Like-named read-outs stand apart in the source and are kept apart here.

T1: B. cenocepacia nitroreductase BCAL0539 (BcNR) (Burkholderia cenocepacia, UniProt B4E8I2)
T1 sequence (B4E8I2 1-242): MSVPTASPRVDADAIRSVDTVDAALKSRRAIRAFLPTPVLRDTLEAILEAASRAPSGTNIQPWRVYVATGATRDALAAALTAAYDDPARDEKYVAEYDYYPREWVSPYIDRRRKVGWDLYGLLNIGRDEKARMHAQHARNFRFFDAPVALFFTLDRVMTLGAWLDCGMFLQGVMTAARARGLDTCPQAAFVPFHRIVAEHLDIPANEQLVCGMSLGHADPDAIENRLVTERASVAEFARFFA


Tests used:
[1] = biological target: T1, B. cenocepacia nitroreductase BCAL0539 (BcNR); experiment: BcNR nitroreductase steady-state kinetics (NADPH decrease at 340 nm); assay type: biochemical; details: compound as substrate of BcNR
Experimental: (§1) The reaction mixture typically contained 50 mM potassium phosphate pH 8.0, 50 mM KCl, 5–10 μM BcNR, and reactions were started by adding the substrate. Steady-state kinetics parameters were determined by assaying the enzyme at variable concentrations of substrate (10–500 μM). The experiments were performed in triplicate, and the kinetic constants Km and kcat determined by fitting the data to the Michaelis-Menten equation using Origin 8 software.

S. aureus ATCC 25923 = experiment: MIC, 2-fold microdilution, resazurin method; assay type: cell-based, Staphylococcus aureus; details: Staphylococcus aureus
Experimental: (§2) Burkholderia cenocepacia strains, Escherichia coli ATCC 25922, Pseudomonas aeruginosa PAO1, and Staphylococcus aureus ATCC 25923 were grown in Luria-Bertani (LB) medium (Difco), if not differently specified, with shaking at 200 rpm, or on LB agar, at 37°C.
(§3) The microtiter plates were incubated at 37°C for 48 (for B. cenocepacia) or 24 h (for all the other strains) and growth was determined by the resazurin method (Martin et al., [2006]). A solution of resazurin sodium salt (Sigma Aldrich) was prepared at 0.01% in distilled water and filter-sterilized. Thirty microliter of resazurin solution were added to each well after 1 or 2 days of incubation at 37°C, and the microtiters were re-incubated at the same temperature for 4 h. The MIC was defined as the lowest concentration of the drug that prevented a change in color from blue to pink, which indicates bacterial growth.
(§4) Three independent biological replicates were used for each MIC determination.

B. cenocepacia FCF22 [2] = experiment: MIC, 2-fold microdilution, resazurin method; assay type: cell-based, Burkholderia cenocepacia; details: clinical isolate FCF22; for MIC: Burkholderia cenocepacia
Experimental: as §2, §3, §4

B. cenocepacia FCF19 [3] = experiment: MIC, 2-fold microdilution, resazurin method; assay type: cell-based, Burkholderia cenocepacia; details: clinical isolate FCF19; for MIC: Burkholderia cenocepacia
Experimental: as §2, §3, §4

B. cenocepacia J2315 = experiment: MIC, 2-fold microdilution, resazurin method; assay type: cell-based, Burkholderia cenocepacia; details: for MIC: Burkholderia cenocepacia; for activity compared with C109, in words: SAR statements, against both bacteria and the purified enzyme
Experimental: as §2, §3, §4

E. coli ATCC 25922 = experiment: MIC, 2-fold microdilution, resazurin method; assay type: cell-based; details: Escherichia coli
Experimental: as §2, §3, §4

P. aeruginosa PAO1 = experiment: MIC, 2-fold microdilution, resazurin method; assay type: cell-based; details: Pseudomonas aeruginosa
Experimental: as §2, §3, §4

[4] = biological target: Burkholderia cenocepacia purified FtsZ protein (Burkholderia cenocepacia, UniProt B4E5Y7); experiment: biochemical; assay type: biochemical; details: for Inhibition of Bc FtsZ At 100 μM: 100 μM compound; for Inhibition of Bc FtsZ At 100 μM / Inhibits B. cenocepacia FtsZ GTPase at 100µM?: Yes/No; for Inhibits B. cenocepacia FtsZ GTPase at 100µM?: Supplementary Table 1
Burkholderia cenocepacia purified FtsZ protein, sequence (B4E5Y7 entry or part of it): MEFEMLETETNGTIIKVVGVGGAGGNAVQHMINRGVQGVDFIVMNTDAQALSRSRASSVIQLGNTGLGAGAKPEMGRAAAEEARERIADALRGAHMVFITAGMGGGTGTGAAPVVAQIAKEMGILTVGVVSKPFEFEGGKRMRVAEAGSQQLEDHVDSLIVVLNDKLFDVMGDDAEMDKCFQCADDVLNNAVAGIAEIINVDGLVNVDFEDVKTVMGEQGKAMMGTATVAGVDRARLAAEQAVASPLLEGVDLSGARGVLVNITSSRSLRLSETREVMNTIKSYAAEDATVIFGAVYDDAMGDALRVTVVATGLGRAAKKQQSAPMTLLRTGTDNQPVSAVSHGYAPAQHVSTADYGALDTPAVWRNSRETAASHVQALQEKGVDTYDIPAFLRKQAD
Experimental: All the recombinant FtsZ proteins were expressed at 20°C overnight in E. coli BL21(DE3) cells, upon induction with 0.5 mM IPTG, and purified using the same protocol assessed for the wild-type B. cenocepacia FtsZ (Hogan et al., [2018]).
GTPase enzyme activity was determined using a pyruvate kinase/L-lactic dehydrogenase (PK/LDH) spectrophotometric coupled assay (Ingerman and Nunnari, [2005]). The assays were performed at 30°C, in a reaction mixture containing […] Hepes pH 7.5, 5 mM MgCl2, 5 mM KCl, 10 U PK/LDH, 0.25 mM NADH, 0.25 mM PEP, and 5–10 μM FtsZ, and initiated by the addition of 0.5 mM GTP. Alternatively, GTPase activity was determined by measuring the release of phosphate using the malachite green assay (Baykov et al., [1988]).
(1) A[I]=A[0]×(1-[I]/[I]+IC50)
where A[I] is the enzyme activity at inhibitor concentration [I] and A[0] is the enzyme activity without inhibitor.

B. cenocepacia FCF22 [5] = experiment: Checkerboard assay with efflux pump inhibitor PaβN MC-207.110; assay type: cell-based, Burkholderia cenocepacia; details: checkerboard, MC-207.110 0–128 μg/ml; C109 value at 128 μg/ml
Experimental: as §3, with “growth. […] Three independent biological replicates were used for each MIC determination.” for “growth.”

B. cenocepacia FCF19 [6] = experiment: as above; assay type: cell-based, Burkholderia cenocepacia; details: checkerboard, MC-207.110 0–128 μg/ml; C109 value at 128 μg/ml
Experimental: as §3, with “growth. […] Three independent biological replicates were used for each MIC determination.” for “growth.”

[7] = tested on: CF bronchial epithelial (CFBE41o-) cell line; experiment: Toxicity by MTT assay; assay type: cell-based; details: CFBE41o- cells, data not shown
P. aeruginosa = experiment: Checkerboard assay with efflux pump inhibitor PaβN MC-207.110; assay type: cell-based, Pseudomonas aeruginosa; details: Pseudomonas aeruginosa; read-out: MIC in the presence of MC-207.110, P. aeruginosa
Experimental: as §3, with “growth. […] Three independent biological replicates were used for each MIC determination.” for “growth.”

B. cenocepacia = experiment: Resazurin-based assay of BcNR reaction mixtures; assay type: cell-based, Burkholderia cenocepacia; details: BcNR reactions with 1 mM C109, with or without NADPH; C109 result: in the absence of NADPH
Text: To assess whether the resulting BcNR reduction product could inhibit B. cenocepacia growth, we carried out a resazurin-based assay.

[8] = substrate: COC(=O)CSc1ccc2nsnc2c1[N+](=O)[O-]; experiment: BcNR nitroreductase steady-state kinetics (NADPH decrease at 340 nm); assay type: biochemical, Burkholderia cenocepacia; details: other: compound as substrate of BcNR; pH 8.0; 37.0 °C
Experimental: as §1

[9] = substrate: O=C(O)c1ccc([N+](=O)[O-])cc1; experiment: as above; assay type: biochemical, Burkholderia cenocepacia; details: other: compound as substrate of BcNR; pH 8.0; 37.0 °C
Experimental: as §1

[10] = ATCC25923, LB, 24 h, read-out: MIC S. aureus 25923
[11] = ATCC25922, LB, 24 h, read-out: MIC E. coli 25922
[12] = PAO1, LB, 24 h, read-out: MIC P. aeruginosa PAO1
[13] = ATCC25923, Supplementary Table 1, read-out: MIC (µg/ml) S. aureus 25923
[14] = J2315, LB, 48 h, read-out: MIC B. cenocepacia J2315
[15] = J2315, Supplementary Table 1, read-out: MIC (µg/ml) B. cenocepacia J2315
[16] = ATCC25922, Supplementary Table 1, read-out: MIC (µg/ml) E. coli 25922
[17] = PAO1, Supplementary Table 1, read-out: MIC (µg/ml) P. aeruginosa PAO1

Molecule	MIC (S. aureus ATCC 25923; [10]) [µg/mL]	melting point [°C]	MIC (E. coli ATCC 25922; [11]) [µg/mL]	MIC (P. aeruginosa PAO1; [12]) [µg/mL]	Inhibition of Bc FtsZ At 100 μM [4]	Inhibits B. cenocepacia FtsZ GTPase at 100µM? [4]	MIC (S. aureus ATCC 25923; [13]) [µg/mL]	MIC (B. cenocepacia J2315; [14]) [µg/mL]	MIC (B. cenocepacia J2315; [15]) [µg/mL]	activity compared with C109, in words (B. cenocepacia J2315)	MIC (E. coli ATCC 25922; [16]) [µg/mL]	MIC (P. aeruginosa PAO1; [17]) [µg/mL]	IC50 [4] [µM]	also measured
O=C(O)c1ccc([N+](=O)[O-])cc1 [4-nitrobenzoic acid]														Vmax (Figure 3) [1]: 17.5 ± 1.4 s⁻¹
O=[N+]([O-])c1c(N=C=S)ccc2nsnc12 [compound 10026149]	2 (≈ 8.39 µM)	185 to 187	16 (≈ 67.2 µM)	16 (≈ 67.2 µM)	Yes	Yes								MIC (S. aureus ATCC 25923; ATCC25923, 24 h, Supplementary Table 1, read-out: MIC (µg/ml) S. aureus 25923): 2 µg/mL (≈ 8.39 µM); MIC (B. cenocepacia FCF22 [2]): 256 µg/mL (≈ 1070 µM); MIC B. cenocepacia FCF22 (B. cenocepacia FCF22 [2]): resistance; MIC (B. cenocepacia FCF19 [3]): 64 µg/mL (≈ 269 µM); MIC B. cenocepacia FCF19 (B. cenocepacia FCF19 [3]): resistance; MIC (B. cenocepacia J2315; J2315, 48 h, read-out: MIC (µg/ml) B. cenocepacia J2315): 32 µg/mL (≈ 134 µM); MIC (B. cenocepacia J2315; J2315, 48 h, read-out: MIC B. cenocepacia J2315): 32 µg/mL (≈ 134 µM); MIC (E. coli ATCC 25922; ATCC25922, 24 h, Supplementary Table 1, read-out: MIC (µg/ml) E. coli 25922): 16 µg/mL (≈ 67.2 µM); MIC (P. aeruginosa PAO1; PAO1, 24 h, Supplementary Table 1, read-out: MIC (µg/ml) P. aeruginosa PAO1): 16 µg/mL (≈ 67.2 µM); IC50 ([4]; read-out: Inhibition of Bc FtsZ IC50, GTPase activity): 20 µM
CCOC(=O)CSc1ccc2nsnc2c1[N+](=O)[O-] [compound 11426142]	4 (≈ 13.4 µM)	172 to 174	8 (≈ 26.7 µM)	32 (≈ 107 µM)	Yes	Yes	4 (≈ 13.4 µM)	32 (≈ 107 µM)	32 (≈ 107 µM)	partially lost activity	8 (≈ 26.7 µM)	32 (≈ 107 µM)	21	MIC in the presence of MC-207.110, FCF22 (B. cenocepacia FCF22 [5]): did not change; MIC in the presence of MC-207.110, FCF19 (B. cenocepacia FCF19 [6]): did not change; toxic concentration at 50% (TC50) [7]: 50 µM; MIC (B. cenocepacia FCF22 [2]): 32 µg/mL (≈ 107 µM); MIC (B. cenocepacia FCF19 [3]): 32 µg/mL (≈ 107 µM); MIC (P. aeruginosa): 2 µg/mL
O=C1CSc2ccc3nsnc3c2N1 [compound 11626109, 7H-[1,2,5]thiadiazolo[3,4-f][1,4]benzothiazin-8(9H)-one]	> 512	211 to 213	> 512		No	No	> 512	512 (≈ 2290 µM)	512 (≈ 2290 µM)	loss of activity	> 512			activity against B. cenocepacia growth (B. cenocepacia): not active
CCOC(=O)C(C)Sc1ccc2nsnc2c1[N+](=O)[O-] (centres unmarked) [compound 11826110]	32 (≈ 102 µM)	153 to 155	32 (≈ 102 µM)	> 256	No	No	32 (≈ 102 µM)	16 (≈ 51.1 µM)	16 (≈ 51.1 µM)	partially lost activity	32 (≈ 102 µM)	> 256	> 100	
COC(=O)C(C)Sc1ccc2nsnc2c1[N+](=O)[O-] (centres unmarked) [compound 11826363]	64 (≈ 214 µM)	161 to 163	16 (≈ 53.5 µM)	256 (≈ 855 µM)	Yes	Yes	64 (≈ 214 µM)	16 (≈ 53.5 µM)	16 (≈ 53.5 µM)		16 (≈ 53.5 µM)	256 (≈ 855 µM)	30	
COC(=O)CSc1c(C)cc2nsnc2c1[N+](=O)[O-] [compound 11926141]	32 (≈ 107 µM)	172 to 174	> 256	> 256	Yes	Yes	32 (≈ 107 µM)	> 256	> 256		> 256	> 256	100	
CCOC(=O)CSc1c(C)cc2nsnc2c1[N+](=O)[O-] [compound 11926142]	32 (≈ 102 µM)	181 to 183	> 256	> 256	Yes	Yes	32 (≈ 102 µM)	> 256	> 256		> 256	> 256	100	
B. cenocepacia nitroreductase BCAL0539 (BcNR) (Burkholderia cenocepacia J2315) (protein) MSVPTASPRVDADAIRSVDTVDAALKSRRAIRAFLPTPVLRDTLEAILEAASRAPSGTNIQPWRVYVATGATRDALAAALTAAYDDPARDEKYVAEYDYYPREWVSPYIDRRRKVGWDLYGLLNIGRDEKARMHAQHARNFRFFDAPVALFFTLDRVMTLGAWLDCGMFLQGVMTAARARGLDTCPQAAFVPFHRIVAEHLDIPANEQLVCGMSLGHADPDAIENRLVTERASVAEFARFFA														Km [8]: 80 ± 5 µM; Vmax [8]: 71.9 µmol/min/mg; kcat [8]: 165 ± 5.9 s⁻¹; kcat/Km [8]: 2.064e+06 ± 20100 M⁻¹ s⁻¹; Km [9]: 200 ± 21 µM; Vmax [9]: 7.6 µmol/min/mg; kcat [9]: 17.5 ± 1.4 s⁻¹; kcat/Km [9]: 87500 ± 8100 M⁻¹ s⁻¹
